In PMC5896955, “The signaling lipid sphingosine 1-phosphate regulates mechanical pain” (eLife, 2018):
pEC50: −log10 of the molar value.

Target: T1, S1P Receptor 3 (S1PR3) (Mus musculus, UniProt Q9Z0U9)
T1 construct: native receptor / S1PR3-mCherry fusion in cultured mouse DRG neurons
Test: Fura-2 calcium imaging of DRG neurons with S1PR3 knockout control; also S1PR3-dependent tail current inhibition ([…])
Type: cell-based

T1 sequence (Q9Z0U9 whole entry, the tested form may be a part): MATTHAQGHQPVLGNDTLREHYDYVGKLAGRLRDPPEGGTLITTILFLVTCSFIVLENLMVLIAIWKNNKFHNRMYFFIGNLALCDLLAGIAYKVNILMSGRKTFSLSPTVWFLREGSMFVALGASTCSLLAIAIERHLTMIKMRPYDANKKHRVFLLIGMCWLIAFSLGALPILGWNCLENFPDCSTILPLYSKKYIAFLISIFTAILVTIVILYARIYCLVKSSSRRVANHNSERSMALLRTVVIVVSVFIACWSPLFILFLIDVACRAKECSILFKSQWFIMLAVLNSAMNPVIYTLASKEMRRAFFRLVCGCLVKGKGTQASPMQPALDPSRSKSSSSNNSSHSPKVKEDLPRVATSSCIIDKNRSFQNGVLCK

CCCCCCCCCCCCC/C=C/[C@@H](O)[C@@H](N)COP(=O)(O)O [S1P, Sphingosine 1-phosphate]
pEC50: 6.81
